According to patent US8642629B2, “Naphthylacetic acids” (Hoffmann-La Roche Inc., priority 2008, dated 2014):

Each compound was assayed against T1, human CRTH2 (Homo sapiens, UniProt Q9Y5Y4) (assay: Human CRTH2 Receptor Binding Assay (whole cell, [3H]ramatroban competition)). Conditions: CHO-K1 cells expressing human CRTH2 and G-alpha16; 20 nM [3H]ramatroban; 1 hour, room temperature.
T1 construct: expressed in transfected cells; host or cells: CHO-K1
T1 sequence (Q9Y5Y4 1-395): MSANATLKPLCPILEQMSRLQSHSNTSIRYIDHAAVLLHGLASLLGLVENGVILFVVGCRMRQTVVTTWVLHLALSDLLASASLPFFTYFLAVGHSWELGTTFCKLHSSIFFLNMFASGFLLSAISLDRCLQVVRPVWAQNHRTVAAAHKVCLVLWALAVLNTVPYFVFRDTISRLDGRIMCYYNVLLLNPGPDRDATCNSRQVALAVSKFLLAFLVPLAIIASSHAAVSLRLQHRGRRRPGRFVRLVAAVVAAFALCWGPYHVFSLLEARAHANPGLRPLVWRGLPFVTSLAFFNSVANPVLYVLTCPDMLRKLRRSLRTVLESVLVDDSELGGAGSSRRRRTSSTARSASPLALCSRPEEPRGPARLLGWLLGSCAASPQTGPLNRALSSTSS
Source text: A whole cell receptor binding assay using [^3H]ramatroban as the competing radioactive ligand was employed to evaluate the compound binding activity to human CRTH2. The radioactive ligand [^3H]ramatroban was synthesized according to Sugimoto et. al. (Eur. J. Pharmacol. 524, 30-37, 2005) to a specific activity of 42 Ci/mmol.
A cell line stably expressing human CRTH2 was established by transfecting CHO-K1 cells with two mammalian expression vectors that harbored human CRTH2 and G-alpha16 cDNAs, respectively, using FuGene® 6 transfection reagent (from Roche). Stable clones expressing CRTH2 were selected by staining each clone with BM16 (BD Pharmingen™ from BD Biosciences, a division of Becton, Dickinson and Company), which is a rat monoclonal antibody to human CRTH2. The cells were maintained as monolayer cultures in Ham's F-12 medium containing 10% fetal bovine serum, 100 units/mL penicillin, 100 μg/mL streptomycin, 2 mM glutamine, 0.5 mg/mL G418 (geneticin) for CRTH2, and 0.2 mg/mL hygromycin-B (for G-alpha 16). For whole cell receptor binding assay, the monolayer cells were rinsed once with PBS (phosphate buffered saline), dissociated using ethylenediaminetetraacetate (Versene™ EDTA from Lonza Inc.), and suspended in PBS containing 10 mM MgCl2 and 0.06% BSA (bovine serum albumin) at 1.5×10^6 cells/mL.
The binding reactions (0.2 mL) were performed in 96-well plates at room temperature in PBS containing 1.5×10^5 cells, 10 mM MgCl2, 0.06% BSA, 20 nM [^3H]ramatroban, and test compound at various concentrations. After 1 hour of binding reactions, the cells were harvested on GF™/B filter microplates (microtiter plates with embedded glass fiber from PerkinElmer, Inc.) and washed 5 times with PBS using a Filtermate™ Harvester (a cell harvester that harvests and washes cells from microplates from PerkinElmer, Inc.). The radioactivities bound to the cells were determined using a microplate scintillation counter (TopCount® NXT, from PerkinElmer, Inc.) after adding 50 μL of Microscint™ 20 scintillation fluid (from PerkinElmer, Inc.) to each well of the filter plates. The radioactivity from non-specific binding was determined by replacing compound with 10 μM of 15(R)-15-methyl PGD2 (from Cayman Chemical Company) in the reaction mixtures. The radioactivity bound to the cells in the absence of compound (total binding) was determined by replacing compound with 0.25% of DMSO (dimethyl sulfoxide) in the reaction mixture. Specific binding data were obtained by subtracting the radioactivity of non-specific binding from each binding data.
The IC50 value is defined as the concentration of the tested compound that is required for 50% inhibition of total specific binding. In order to calculate the IC50 value, the percent inhibition data were determined for 7 concentrations for each compound. The percent inhibition for a compound at each concentration was calculated according to the following formula, [1−(specific binding in the presence of compound)/(total specific binding)]×100. The IC50 value was then obtained by fitting the percent inhibition data to a sigmoidal dose-response (4 parameter logistic) model in the XLfit® software Excel add-in program [from ID Business Solutions Ltd., model 205, where F(x)=(A+(B−A)/(1+((C/x)^D)))].
Cc1cc(S(C)(=O)=O)ccc1Oc1c(C)c(CC(=O)O)cc2ccc(F)cc12 [Example 2-3, [6-fluoro-4-(4-methanesulfonyl-2-methyl-phenoxy)-3-methyl-naphthalen-2-yl]-acetic acid] showed an IC50 of 7.5 nM.
CCS(=O)(=O)c1ccc(Oc2cc(CC(=O)O)cc3ccc(Br)cc23)cc1 [Example 15-1, [6-Bromo-4-(4-ethanesulfonyl-phenoxy)-naphthalen-2-yl]-acetic acid] showed an IC50 of 5.4 nM.
For Cc1ccc(S(=O)(=O)c2ccc(Oc3c(C)c(CC(=O)O)cc4ccc(F)cc34)cc2)cc1 [Example 2-29, {6-fluoro-3-methyl-4-[4-(toluene-4-sulfonyl)-phenoxy]-naphthalen-2-yl}-acetic acid], the IC50 was 2.8 nM.
Work on Cc1cc(Oc2cc(CC(=O)O)cc3ccc(F)cc23)ccc1S(C)(=O)=O [Example 1-7, [6-fluoro-4-(4-methanesulfonyl-3-methyl-phenoxy)-naphthalen-2-yl]-acetic acid] yielded an IC50 of 3.5 nM.
CC(C)S(=O)(=O)c1ccc(Oc2cc(CC(=O)O)cc3ccc(F)cc23)cc1 [Example 1-4, {6-fluoro-4-[4-(propane-2-sulfonyl)-phenoxy]-naphthalen-2-yl}-acetic acid] showed an IC50 of 6.7 nM.
Cc1c(CC(=O)O)cc2ccc(Cl)cc2c1Oc1ccc(S(C)(=O)=O)cc1 [Example 2-7, [6-Chloro-4-(4-methanesulfonyl-phenoxy)-3-methyl-naphthalen-2-yl]-acetic acid] gave an IC50 of 2.2 nM.
Work on CCS(=O)(=O)c1ccc(Oc2cc(CC(=O)O)cc3ccc(OC(F)(F)F)cc23)cc1 [Example 1-19, [4-(4-Ethanesulfonyl-phenoxy)-6-trifluoromethoxy-naphthalen-2-yl]-acetic acid] yielded an IC50 of 2.6 nM.
CCS(=O)(=O)c1cnc(Oc2cc(CC(=O)O)cc3ccc(F)cc23)c(Br)c1 [Example 1-13, [4-(3-bromo-5-ethanesulfonyl-pyridin-2-yloxy)-6-fluoro-naphthalen-2-yl]-acetic acid] showed an IC50 of 2.3 nM.
Cc1cc(S(C)(=O)=O)cnc1Oc1cc(CC(=O)O)cc2ccc(F)cc12 [Example 1-10, [6-fluoro-4-(5-methanesulfonyl-3-methyl-pyridin-2-yloxy)-naphthalen-2-yl]-acetic acid] showed an IC50 of 3.3 nM.
COc1ccc(S(=O)(=O)c2ccc(Oc3c(C)c(CC(=O)O)cc4ccc(F)cc34)cc2)cc1 [Example 2-30, {6-fluoro-4-[4-(4-methoxy-benzenesulfonyl)-phenoxy]-3-methyl-naphthalen-2-yl}-acetic acid] was tested, and the IC50 was 2.7 nM.
CS(=O)(=O)c1ccc(Oc2cc(CC(=O)O)cc3ccc(F)cc23)nc1 [Example 1-9, [6-fluoro-4-(5-methanesulfonyl-pyridin-2-yloxy)-naphthalen-2-yl]-acetic acid] gave an IC50 of 3.7 nM.
In the case of Cc1c(CC(=O)O)cc2ccc(F)cc2c1Nc1ccc(S(C)(=O)=O)cc1 [Example 8-2, [6-fluoro-4-(4-methanesulfonyl-phenylamino)-3-methyl-naphthalen-2-yl]-acetic acid], the IC50 is reported as 2.6 nM.
Work on Cc1cc(Oc2c(C)c(CC(=O)O)cc3ccc(F)cc23)ccc1S(C)(=O)=O [Example 2-6, [6-fluoro-4-(4-methanesulfonyl-3-methyl-phenoxy)-3-methyl-naphthalen-2-yl]-acetic acid] yielded an IC50 of 2.7 nM.
Cc1cc(S(C)(=O)=O)ccc1Oc1c(C)c(CC(=O)O)cc2ccc(Cl)cc12 [Example 2-9, [6-chloro-4-(4-methanesulfonyl-2-methyl-phenoxy)-3-methyl-naphthalen-2-yl]-acetic acid] gave an IC50 of 2.7 nM.
CCS(=O)(=O)c1ccc(Oc2cc(CC(=O)O)cc3ccc(C#N)cc23)nc1 [Example 14-1, [6-Cyano-4-(5-ethanesulfonyl-pyridin-2-yloxy)-naphthalen-2-yl]-acetic acid] showed an IC50 of 3.3 nM.
Work on Cc1c(CC(=O)O)cc2ccccc2c1Oc1ccc(S(C)(=O)=O)cc1 [Example 3-2, [4-(4-methanesulfonyl-phenoxy)-3-methyl-naphthalen-2-yl]-acetic acid] yielded an IC50 of 4.7 nM.
Cc1c(CC(=O)O)cc2ccc(Cl)cc2c1Oc1ccc(C#N)cc1 [Example 2-45, [6-chloro-4-(4-cyano-phenoxy)-3-methyl-naphthalen-2-yl]-acetic acid] showed an IC50 of 134 nM.
Compound Cc1c(CC(=O)O)cc2ccc(F)cc2c1Oc1ccc(S(C)(=O)=O)cn1 [Example 2-32, [6-fluoro-4-(5-methanesulfonyl-pyridin-2-yloxy)-3-methyl-naphthalen-2-yl]-acetic acid] has an IC50 of 0.9 nM.
In the case of CCS(=O)(=O)c1ccc(Oc2c(C)c(C(C)C(=O)O)cc3ccc(F)cc23)nc1 (centres unmarked) [Example 22-1, 2-[4-(5-Ethanesulfonyl-pyridin-2-yloxy)-6-fluoro-3-methyl-naphthalen-2-yl]-propionic acid], the IC50 is reported as 378 nM.
Cc1c(CC(=O)O)cc2ccc(F)cc2c1Oc1ccc(S(=O)(=O)c2ccc(F)cc2)cc1 [Example 2-27, {6-fluoro-4-[4-(4-fluoro-benzenesulfonyl)-phenoxy]-3-methyl-naphthalen-2-yl}-acetic acid] was tested, and the IC50 was 2.9 nM.
In the case of Cc1c(CC(=O)O)cc2ccc(F)cc2c1Oc1ccc(S(=O)(=O)C2CCCC2)cc1 [Example 2-26, [4-(4-cyclopentanesulfonyl-phenoxy)-6-fluoro-3-methyl-naphthalen-2-yl]-acetic acid], the IC50 is reported as 2.3 nM.
With Cc1c(CC(=O)O)cc2ccc(F)cc2c1Oc1ccc(S(C)(=O)=O)c(Cl)c1 [Example 2-11, [4-(3-chloro-4-methanesulfonyl-phenoxy)-6-fluoro-3-methyl-naphthalen-2-yl]-acetic acid] the IC50 was 3 nM.
CCS(=O)(=O)c1ccc(Oc2cc(CC(=O)O)cc3ccc(C(F)(F)F)cc23)cc1 [Example 1-17, [4-(4-Ethanesulfonyl-phenoxy)-6-trifluoromethyl-naphthalen-2-yl]-acetic acid] was tested, and the IC50 was 10.5 nM.
With CCS(=O)(=O)c1cc(Cl)c(Oc2c(C)c(CC(=O)O)cc3ccc(F)cc23)cc1F [Example 2-25, [4-(2-chloro-4-ethanesulfonyl-5-fluoro-phenoxy)-6-fluoro-3-methyl-naphthalen-2-yl]-acetic acid] the IC50 was 2.4 nM.
In the case of CCS(=O)(=O)c1cnc(Oc2c(C)c(CC(=O)O)cc3ccc(F)cc23)c(C)c1 [Example 2-35, [4-(5-ethanesulfonyl-3-methyl-pyridin-2-yloxy)-6-fluoro-3-methyl-naphthalen-2-yl]-acetic acid], the IC50 is reported as 2.9 nM.
CCS(=O)(=O)c1ccc(Oc2cc(CC(=O)O)cc3ccc(OC)cc23)nc1 [Example 1-21, [4-(5-Ethanesulfonyl-pyridin-2-yloxy)-6-methoxy-naphthalen-2-yl]-acetic acid] showed an IC50 of 4.7 nM.
With CCS(=O)(=O)c1ccc(Oc2c(C)c(CC(=O)O)cc3ccc(F)cc23)c(Cl)c1 [Example 2-21, [4-(2-chloro-4-ethanesulfonyl-phenoxy)-6-fluoro-3-methyl-naphthalen-2-yl]-acetic acid] the IC50 was 2.4 nM.
CCS(=O)(=O)c1ccc(Oc2c(C)c(CC(=O)O)cc3ccc(F)cc23)cc1C [Example 2-14, [4-(4-ethanesulfonyl-3-methyl-phenoxy)-6-fluoro-3-methyl-naphthalen-2-yl]-acetic acid] showed an IC50 of 1.6 nM.
In the case of Cc1c(CC(=O)O)cc2ccc(F)cc2c1Oc1ccc(S(=O)(=O)N2CCN(C)CC2)cc1 [Example 2-41, {6-fluoro-3-methyl-4-[4-(4-methyl-piperazine-1-sulfonyl)-phenoxy]-naphthalen-2-yl}-acetic acid], the IC50 is reported as 1.7 nM.
